Data: patent US11084895B2, “Modified polytetrafluoroethylene fine powder and uniaxially stretched porous body” (DAIKIN INDUSTRIES, LTD., priority 2013, dated 2021)

Test: LogPOW, octanol-water partition coefficient calculated from HPLC elution time via calibration curve
Assay type: physicochemical
Details: partition coefficient between 1-octanol and water, ODS-120T column, acetonitrile/0.6 mass % HClO4 aq. 1/1, 40° C.
Procedure: The LogPOW value is a partition coefficient between 1-octanol and water, and is represented by LogP, wherein P represents the ratio of (fluorosurfactant concentration in octanol)/(fluorosurfactant concentration in water) when an octanol/water (1:1) liquid mixture containing a fluorosurfactant is phase-separated.
The octanol-water partition coefficient represented by LogPOW is calculated as follows. HPLC is performed on standard substances (heptanoic acid, octanoic acid, nonanoic acid, and decanoic acid) each having a known octanol-water partition coefficient using TOSOH ODS-120T column (ϕ4.6 mm×250 mm) as a column and acetonitrile/0.6 mass % HClO4 aqueous solution=1/1 (vol/vol %) as an eluent at a flow rate of 1.0 ml/min, a sample amount of 300 μL, and a column temperature of 40° C., with detection light UV 210 nm. A calibration curve between the respective elution times and the known octanol-water partition coefficients is drawn, and the LogPOW value is calculated from the elution time of the sample liquid in HPLC based on the calibration curve.

SMILES	LogPOW value	chromatographic logP
N.O=C(O)C(F)(OC(F)(F)C(F)(OC(F)(F)F)C(F)(F)F)C(F)(F)F (centres unmarked) [CF3OCF(CF3)CF2OCF(CF3)COONH4]	≤ 3.4	
O=C(O)C(F)(F)C(F)(F)C(F)(F)C(F)(F)C(F)(F)C(F)(F)C(F)(F)F [PFOA, ammonium perfluorooctanoate]		3.5
